Test results taken from EP0263213B1, “C20 Through C26 amino steroids” (THE UPJOHN COMPANY, priority 1986, dated 1988).

Legend:
[1] = tested on: arachidonic acid; test: Arachidonic Acid Antagonism Assay (AAAA); format: in vivo; details: male CF-1 mice
Experimental: Since these metabolites contribute to the pathological problems associated with stroke, spinal trauma and head injury, compounds which antagonize arachidonic acid are useful in treating stroke, spinal trauma and head injury.
While not necessary to determine arachidonic acid antagonism, the above assay has been modified as follows: Charles River male CF-1 mice weighing 18-22g are treated IV with the test compound dissolved in 1.0% Tween-80 and 0.1% hydrochloric acid in distilled water, 0.2 ml total volume. Fifteen minutes later sodium arachidonate (90% pure) in physiological (normal) saline is injected into the tail vein. The LD₅₀ is measured using the Spearman-Karber method with a log dose interval of 0.05 (N=6). Compounds which elevate the LD₅₀ outside of the 95% confidence interval of the control LD₅₀ are considered to be "active".

[2] = tested on: rat brain synaptosomes; test: Conjugated Diene Formation Assay; format: biochemical; details: active = inhibits conjugated diene formation by 50% or more; 100 »M (or less) of drug, 100 »M hydrogen peroxide, 200 »M ferrous ammonium sulfate
Text: The formation of conjugated dienes as assayed by Braughler, J. Neurochem., 44, 1282 (1985), Bucher, Fund. Applied Tox., 3, 222 (1983) and Tein, Arch. Biochem. Biophy., 216, 142 (1982) is a standard pharmacological laboratory procedure useful for identifying compounds which inhibit lipid peroxidation. Since lipid peroxidation is involved in the pathophysiology of central nervous system trauma, compounds which inhibit conjugated diene formation are useful in treating the conditions listed below.
44, 1282 (1985). Synaptosomal suspension (10 »l) is added to 1 ml of physiological (normal) saline containing 1 % Lubrol PX (Sigma Chemical Co. St. Louis, Mo.), 100 »M hydrogen peroxide and 100 »M (or less) of the drug to be tested prepared in either absolute ethanol or water depending upon solubility. The reaction is started by the rapid addition of 200 »M ferrous ammonium sulfate is prepared in argon-purged water. The sample is rapidly mixed and the change in absorbance at 232nm is followied in a Gilford Response Spectrophotometer equipped with a rapid sampler. Due to the rapidity of the reaction, rapid addition of the iron, rapid mixing and sampling are obligatory to the accuracy of the assay. For best results absorbance readings of one/sec should be started within 5 sec following the addition of iron. The initial linear rate of absorbance change during the first 30 sec of reaction are compared with the rate of a reaction containing all reagents except synaptosomes. The difference in rates is the rate of conjugated diene formation. Rates with drug are compared to rates obtained in the absence of drug and the % inhibition is calculated. A compound that inhibits conjugated diene formation by 50% or more is considered to be "active".

[3] = tested on: mucous secretion; test: inhibition of mucous secretion assay of Johnson; details: active = inhibits or blocks enhancement of induced mucous secretions
Text: The inhibition of mucous secretion assay of Johnson Int. […] According to this procedure compounds which inhibit or block enhancement of induced mucous secretions when tested are considered to be "active".

[4] = tested on: rat brain synaptosomes; test: Malonyldialdehyde (MDA) Formation Assay; format: biochemical; details: active = inhibits MDA formation by 50% or more at 200»M or less; 10 min at 37°, pH 7.0, 150 uM Fe+++ and 50 uM Fe++
Experimental: Since lipid peroxidation is involved in the pathophysiology of central nervous system trauma, compounds which inhibit MDA formation are useful in treating the conditions listed below.
While not necessary to determine MDA formation, the above assays have been modified as follows: rat brain synaptosomes are prepared as described in the Example about the conjugated diene assay, except that the final wash of the synaptosomes and final suspension are in physiological (normal) saline in which the pH has been adjusted to 7.0. The synaptosomes are incubated for 10 min at 37° in physiological (normal) saline pH 7.0 (total volume = 100 ul) containing; 10 ul synaptosomal suspension, 10% DMSO plus or minus drug, 150 uM Fe⁺⁺⁺ and 50 uM Fe++. The incubation is started by the rapid addition of iron to the otherwise complete reaction. The iron solutions are prepared fresh as ferric chloride and ferrous ammonium sulfate in argon-purged water. Following the 10 min incubation, the reaction is stopped by the addition of 500 ul ice-cold 12% trichloroacetic acid prepared in 0.5 N hydrochoric acid. Water (300 ul) is then added along with 100 ul of freshly prepared thiobarbituric acid (3.3% in 0.5N sodium hydroxide) and 10 ul of 5mM desferrioxamine. The sample is then heated in a boiling water bath for 20 minutes. The samples are cooled and centrifuged for 15 minutes at 1500 xg and the absorbance of the supernatant fraction is read at 532 nm. The % inhibition of MDA formation is calculated by dividing the absorbance of sample containing drug by the absorbance of samples incubated without drug. Reaction blanks are samples incubated in the absence of iron. A compound that inhibits MDA formation by 50% or more at a concentration of 200»M or less is considered "active".

[5] = tested on: ACAT; test: AcylCoA:Cholesterol Acyltransferase (ACAT) Inhibition Assay; format: cell-based; details: for inhibiting ACAT: active = inhibits ACAT activity equal to, or greater than, that of chlorpromazine
Text: ACAT esterifies arterial cholesterol which is a key reaction in the development of atherosclerosis. The procedure of Bell, Can. […] In the ACAT assay it is preferred to use Fu5AH cells, see Lipids 9, 526 (1974). According to this procedure, compounds which inhibit ACAT activity equal to, or greater than, that of chlorpromazine are considered "active".

[6] = tested on: mouse head injury; test: in vivo mouse head injury procedure of Hall (1 hr post-injury grip test); details: 1 hr after head injury, statistically significant (p < 0.05)
[7] = tested on: interleukin-1; test: inhibition of interleukin-1 induced T cell proliferation assay; format: cell-based; details: for % Inhibition at 10⁻⁶ M: interleukin-1 induced T cell proliferation
Text: The inhibition of interleukin-1 induced T cell proliferation assay, Proc. Nat. […] Since people with arthritis make excess interleukin 1, compounds which inhibit the activity of interleukin 1 are useful in the treatment of arthritis. According to this procedure compounds which inhibit the activity of interleukin 1 greater that 30% at 10⁻⁶ M are considered to be "active".

Structure (SMILES): CS(=O)(=O)O.C[C@]12CCC(=O)C=C1CC[C@@H]1C2=CC[C@@]2(C)[C@H]1CC[C@]2(O)C(=O)CN1CCN(c2ccccn2)CC1 [Example 2, 17α-Hydroxy-21-[4-(2-pyridinyl)-1-piperazinyl]pregna-4,9(11)-diene-3,20-dione methanesulfonate]
- arachidonic acid antagonism ([1]; active = elevates the LD50 of sodium arachidonate outside the 95% confidence interval of the control LD50, test compound IV 15 minutes before): demonstrate arachidonic acid antagonism
- inhibition of conjugated diene formation [2]: demonstrate such activity by inhibition of conjugated dienes
- inhibition of mucous secretion ([3]; methanesulfonate): preferred mucous inhibitors

Structure (SMILES): CCN(CC)c1nc(N2CCCCC2)cc(N2CCN(CC(=O)[C@@]3(O)CC[C@H]4[C@@H]5CCC6=CC(=O)CC[C@]6(C)C5=CC[C@@]43C)CC2)n1.Cl.O [Example 17]
- inhibition of MDA formation [4]: demonstrate such activity by inhibition of MDA formation
- % Inhibition of ACAT (5 »g/ml) [5]: 32.2%
- inhibiting ACAT [5]: active in inhibiting ACAT
- % of Control LD₅₀ 100mg/kg ([1]; 100mg/kg, LD50 of sodium arachidonate, IV): 150%

Structure (SMILES): CCN(CC)c1cc(N2CCN(CC(=O)[C@@]3(O)[C@H](C)C[C@H]4[C@@H]5CCC6=CC(=O)C=C[C@]6(C)C5=CC[C@@]43C)CC2)nc(N(CC)CC)n1.Cl.O [Example 18, 21-[4-[2,6-Bis(diethylamino)-4-pyrimidinyl]-1-piperazinyl]-17α-hydroxy-16α-methylpregna-1,4,9(11)-triene-3,20-dione hydrochloride hydrate]
- % Increase in 1 hr Post-Injury Grip Test Scores After 3 mg/kg [6]: 112.6%
- % Inhibition of ACAT (5 »g/ml) [5]: 48.4%
- inhibiting ACAT [5]: active in inhibiting ACAT

Structure (SMILES): CS(=O)(=O)O.CS(=O)(=O)O.C[C@@H]1C[C@H]2[C@@H]3CCC4=CC(=O)C=C[C@]4(C)C3=CC[C@]2(C)[C@H]1C(=O)CN1CCN(c2cc(N3CCCC3)nc(N3CCCC3)n2)CC1 [Example 83, 16α-Methyl-21-[4-[2,6-bis(pyrrolidino)-4-pyrimidyl]-1-piperazinyl]pregna-1,4,9(11)-triene-3,20-dione dimethane-sulfonate]
- inhibition of MDA formation [4]: demonstrate such activity by inhibition of MDA formation
- % Increase in 1 hr Post-Injury Grip Test Scores After 3 mg/kg [6]: 134.5%
- % Inhibition at 10⁻⁶ M [7]: 62%
- inhibition of conjugated diene formation [2]: demonstrate such activity by inhibition of conjugated dienes
- inhibition of mucous secretion [3]: preferred mucous inhibitors

Structure (SMILES): C[C@@H]1C[C@H]2[C@@H]3CCC4=CC(=O)C=C[C@]4(C)C3=CC[C@]2(C)[C@H]1C(=O)CN1CCN(c2cc(N3CCOCC3)nc(N3CCOCC3)n2)CC1 [Example 86]
- inhibition of MDA formation [4]: demonstrate such activity by inhibition of MDA formation
- % Inhibition at 10⁻⁶ M [7]: 84%
- inhibition of conjugated diene formation [2]: demonstrate such activity by inhibition of conjugated dienes

Structure (SMILES): C[C@]12CCC(=O)C=C1CC[C@@H]1C2=CC[C@@]2(C)[C@H]1CC[C@]2(O)C(=O)CN1CCN(c2cc(N3CCOCC3)nc(N3CCOCC3)n2)CC1.Cl.Cl.O [Example 105, 21-[4-(2,6-Bis(4-morpholinyl)-4-pyrimidinyl)-1-piperazinyl]-17α-hydroxypregna-4,9(11)-diene-3,20-dione dihydrochloride, hydrate]
- % Inhibition at 10⁻⁶ M [7]: 76%
- inhibition of mucous secretion ([3]; dihydrochloride, hydrate): preferred mucous inhibitors

Structure (SMILES): CCN(CC)c1ccc(N2CCN(CC(=O)[C@H]3CC[C@H]4[C@@H]5CCC6=CC(=O)C=C[C@]6(C)[C@H]5CC[C@]34C)CC2)nc1N(CC)CC.Cl.Cl [Example 120]
- inhibition of MDA formation [4]: demonstrate such activity by inhibition of MDA formation
- % Inhibition at 10⁻⁶ M [7]: 56%
- inhibition of interleukin 1 ([7]; active = inhibits the activity of interleukin 1 greater than 30% at 10⁻⁶ M): demonstrate inhibition of interleukin 1
